We go through two molecules from PMC6284057, “Combined Antibacterial Effects of Goat Cathelicidins With Different Mechanisms of Action” (Frontiers in Microbiology, 2018).

The subject of assay [1] is E. coli XDR CI 1057 (26 days without antimicrobial agent). To be noted: Table 4, strain after 26 days without antimicrobial agent (selection in MH broth with 0.9% NaCl). The protocol: (§1) Antimicrobial assay was performed as described previously ([Panteleev et al., 2017b]). Briefly, mid-log phase bacterial test cultures were diluted with the 2× Mueller-Hinton broth (MH, Sigma) supplemented with 1.8% NaCl or without it so that to reach a final cell concentration of 10^6 CFU/ml. 50 μl aliquots of the obtained bacterial suspension were added to 50 μl of the peptide solutions serially diluted with 0.1% water solution of bovine serum albumin (BSA) in 96-well flat-bottom polystyrene microplates (Eppendorf #0030730011). […] The results were expressed as the median values determined on the basis of at least three independent experiments performed in triplicate.
(§2) Resistance induction experiments were performed using the previously described method ([Chernysh et al., 2015]) with some modifications. Briefly, on day 1, the overnight culture of wild-type bacteria was diluted with the 2× MH broth containing 1.8% NaCl so that to reach a final cell concentration of 10^6 CFU/ml. 50 μl aliquots of the obtained bacterial suspension were added to 50 μl of the peptide solutions serially diluted with 0.1% water solution of BSA in 96-well microplates (Eppendorf #0030730011). After incubation at 37°C and 900 rpm for 22 ± 2 h, MICs were determined as described above. For each subsequent daily transfer, 5 μl of the inoculum taken from the first well with a sub-inhibitory drug concentration were diluted with 1 ml of the fresh 2× MH broth supplemented with 1.8% NaCl. […] 26 repeated passages in the presence of antimicrobial agents were made for each bacterial strain during the experiment. […] Control serial passages in the absence of the agent were also performed.

Assay [2] deals with E. coli XDR CI 1057 (26 days with synergy combination). Particulars: Table 4, strain after 26 days with synergy combination (selection in MH broth with 0.9% NaCl). The protocol: as §1, §2
Assay [3] concerns E. coli XDR CI 1057 (26 days with mini-ChBac7.5Nα). Particulars: Table 4, strain after 26 days with mini-ChBac7.5Nα (selection in MH broth with 0.9% NaCl). The protocol: as §1, §2
In another assay the test system is E. coli (XDR CI 1057). As to the kind of experiment: microbe, parasite or virus in culture. It is filed as cell-based, Escherichia coli. The protocol: (§3) Antimicrobial assay was performed as described previously ([Panteleev et al., 2017b]). Briefly, mid-log phase bacterial test cultures were diluted with the 2× Mueller-Hinton broth (MH, Sigma) supplemented with 1.8% NaCl or without it so that to reach a final cell concentration of 10^6 CFU/ml. 50 μl aliquots of the obtained bacterial suspension were added to 50 μl of the peptide solutions serially diluted with 0.1% water solution of bovine serum albumin (BSA) in 96-well flat-bottom polystyrene microplates (Eppendorf #0030730011). After incubation at 37°C and 900 rpm for 24 h the minimum inhibitory concentrations (MIC) were determined as the lowest peptide concentrations that prevented growth of a test microorganism observed as visible turbidity. The results were expressed as the median values determined on the basis of at least three independent experiments performed in triplicate.

For assay [4], the system named is P. mirabilis (XDR CI 3423). As to the kind of experiment: microbe, parasite or virus in culture. It is filed as cell-based, Proteus mirabilis. Particulars: Table S2, XDR clinical isolate; NaCl content of medium not stated; read-out: Minimum inhibitory concentration. The protocol: as §3
The next assay relates to E. cloacae (XDR CI 4172). As to the kind of experiment: microbe, parasite or virus in culture. It is filed as cell-based, Enterobacter cloacae. Particulars: Table S2, XDR clinical isolate; NaCl content of medium not stated; read-out: Minimum inhibitory concentration. The method, then: as §3
The test system of a further assay is E. coli ML-35p. As to the kind of experiment: Resistance induction experiment. The assay is classed as cell-based, Escherichia coli. Particulars: after 25 passages under selection; MH broth, 0.9% NaCl. The protocol: as §2
A further assay relates to E. coli XDR CI 1057. Particulars: MH broth, 0.9% NaCl. The protocol: Resistance induction experiments were performed using the previously described method ([Chernysh et al., 2015]) with some modifications. Briefly, on day 1, the overnight culture of wild-type bacteria was diluted with the 2× MH broth containing 1.8% NaCl so that to reach a final cell concentration of 10^6 CFU/ml. 50 μl aliquots of the obtained bacterial suspension were added to 50 μl of the peptide solutions serially diluted with 0.1% water solution of BSA in 96-well microplates (Eppendorf #0030730011). After incubation at 37°C and 900 rpm for 22 ± 2 h, MICs were determined as described above. For each subsequent daily transfer, 5 μl of the inoculum taken from the first well with a sub-inhibitory drug concentration were diluted with 1 ml of the fresh 2× MH broth supplemented with 1.8% NaCl. […] Control serial passages in the absence of the agent were also performed.

For assay [5], the system named is P. aeruginosa (XDR CI 1049). As to the kind of experiment: microbe, parasite or virus in culture. The assay is classed as cell-based, Pseudomonas aeruginosa. To be noted: Table S2, XDR clinical isolate; NaCl content of medium not stated; read-out: Minimum inhibitory concentration. The protocol: as §3
Assay [6] relates to K. pneumoniae (XDR CI 1056). As to the kind of experiment: microbe, parasite or virus in culture. It is filed as cell-based, Klebsiella pneumoniae. Particulars: Table S2, XDR clinical isolate; NaCl content of medium not stated; read-out: Minimum inhibitory concentration. The method, then: as §3
The subject of assay [7] is A. baumannii (XDR CI 2675). As to the kind of experiment: microbe, parasite or virus in culture. The assay is classed as cell-based, Acinetobacter baumannii. To be noted: Table S2, XDR clinical isolate; NaCl content of medium not stated; read-out: Minimum inhibitory concentration. The method, then:
as §3

The test system of assay [8] is E. coli V102G mutant strain (SbmA). On the set-up: method as in Corbalan et al., 2013. To be noted: ref Corbalan et al., 2013; cited from earlier work.

≈ marks a conversion by molar mass, not a printed value. Positions of bridges follow the written chain, without caps; N, C: chain ends. Non-standard residues stand in square brackets, D forms with d. Residues, ends and D or L forms follow the SMILES beside them. *: point of attachment. X1 = CC[C@H](C)CCCCC(=O)*; Dab = NCC[C@H](N)C(=O)O

`CC[C@H](C)CCCCC(=O)N[C@@H](CCN)C(=O)N[C@H](C(=O)N[C@@H](CCN)C(=O)N[C@H]1CCNC(=O)[C@H]([C@@H](C)O)NC(=O)[C@H](CCN)NC(=O)[C@H](CCN)NC(=O)[C@H](CC(C)C)NC(=O)[C@@H](Cc2ccccc2)NC(=O)[C@H](CCN)NC1=O)[C@@H](C)O` [Polymyxin B, reference compound] (X1-[Dab]T[Dab][Dab][Dab][dF]L[Dab][Dab]T; lactam 4-C (inferred); N-terminus assumed): the Minimum inhibitory concentration in assay [1] was found to be 0.125 µM (≈ 0.15 µg/mL); in assay [2] it was 0.06 µM; in assay [3], 0.125 µM (≈ 0.15 µg/mL); in the assay with E. coli (XDR CI 1057) (Table 4, strain at 0 days of selection experiment (selection in MH broth with 0.9% NaCl)), 0.125 µM (≈ 0.15 µg/mL); with E. coli (XDR CI 1057) (Table S2, XDR clinical isolate, NaCl content of medium not stated), 0.125 µM (≈ 0.15 µg/mL). Also, the MIC in assay [4] is on record as above 128 µM; with E. cloacae (XDR CI 4172), 4 µM (≈ 4.81 µg/mL); in [5] it was 2 µM (≈ 2.41 µg/mL); in assay [6], 0.25 µM (≈ 0.301 µg/mL); in [7], 0.125 µM (≈ 0.15 µg/mL). Further, the “increase in MIC value” with E. coli ML-35p was determined as 128 fold; in the assay on E. coli XDR CI 1057 (after 25 passages under selection), 2048 fold. The “MIC value after resistance development” value in the assay with E. coli XDR CI 1057 (selection by polymyxin B) is above 256 µM.
For “Bac7(1–16): minimal active fragment of the bovine 60-residue Pro-rich peptide Bac7 (RRIRPRPPRLPRPRPR; Bactenecin 7; UniProt P19661 131-146, looked up, fragment)”, in [8], the MIC is 156 µM.
